Assay results taken from patent US11236087B2, “Highly active pyrazolo-piperidine substituted indole-2-carboxamides active against the hepatitis B virus (HBV)” (AiCuris GmbH & Co. KG, priority 2017, dated 2022).

Experiments:
HBV = assay: Determination of HBV DNA from the supernatants of HepAD38 cells (anti-HBV activity); assay type: cell-based, hepatitis B virus; conditions: Hepatitis B virus, 144 h; HBV DNA in HepAD38 supernatant, day 6, qPCR; read-out: Cell Activity (EC50)
Experimental: Determination of HBV DNA from the Supernatants of HepAD38 Cells
The anti-HBV activity was analysed in the stable transfected cell line HepAD38, which has been described to secrete high levels of HBV virion particles (Ladner et al., 1997). In brief, HepAD38 cells were cultured at 37° C. at 5% CO2 and 95% humidity in 200 μl maintenance medium, which was Dulbecco's modified Eagle's medium/Nutrient Mixture F-12 (Gibco, Karlsruhe), 10% fetal bovine serum (PAN Biotech Aidenbach) supplemented with 50 μg/ml penicillin/streptomycin (Gibco, Karlsruhe), 2 mM L-glutamine (PAN Biotech, Aidenbach), 400 μg/ml G418 (AppliChem, Darmstadt) and 0.3 μg/ml tetracycline. Cells were subcultured once a week in a 1:5 ratio, but were usually not passaged more than ten times. For the assay 60,000 cells were seeded in maintenance medium without any tetracycline into each well of a 96-well plate and treated with serial half-log dilutions of test compound. To minimize edge effects the outer 36 wells of the plate were not used but were filled with assay medium. On each assay plate six wells for the virus control (untreated HepAD38 cells) and six wells for the cell control (HepAD38 cells treated with 0.3 μg/ml tetracycline) were allocated, respectively. In addition, one plate set with reference inhibitors like BAY 41-4109, entecavir, and lamivudine instead of screening compounds were prepared in each experiment. In general, experiments were performed thrice in triplicates. At day 6 HBV DNA from 100 μl filtrated cell culture supernatant (AcroPrep Advance 96 Filter Plate, […] Supor membran, PALL GmbH, Dreieich) was automatically purified on the MagNa Pure LC instrument using the MagNA Pure 96 DNA and Viral NA Small Volume Kit (Roche Diagnostics, Mannheim) according to the instructions of the manufacturer. EC50 values were calculated from relative copy numbers of HBV DNA In brief, 5 μl of the 100 μl eluate containing HBV DNA were subjected to PCR LC480 Probes Master Kit (Roche) together with 1 μM antisense primer […], 0.5 μM sense primer […], 0.3 μM hybprobes […]-FL and LC640-[…]-PH (TIBMoBiol, Berlin) to a final volume of 12.5 μl. The PCR was performed on the Light Cycler 480 real time system (Roche Diagnostics, Mannheim) using the following protocol: Pre-incubation for 1 min at 95° C., amplification: 40 cycles×(10 sec at 95° C., 50 sec at 60° C., 1 sec at 70° C.), cooling for 10 sec at 40° C. Viral load was quantitated against known standards using HBV plasmid DNA of pCH-9/3091 (Nassal et al., 1990, Cell 63: 1357-1363) and the LightCycler 480 SW 1.5 software (Roche Diagnostics, Mannheim) and EC50 values were calculated using non-linear regression with GraphPad Prism 6 (GraphPad Software Inc., La Jolla, USA).

[1] = Cell viability assay (AlamarBlue) in HepAD38 cells; conditions: human

| SMILES | EC50 (HBV) [µM] | CC50 at 6 days [1] [µM] |
| --- | --- | --- |
| O=C(c1cc2c(F)c(F)c(F)cc2[nH]1)N1CCc2n[nH]c(-c3cscn3)c2C1 [Example 11, 4,5,6-trifluoro-2-[3-(1,3-thiazol-4-yl)-2H,4H,5H,6H,7H-pyrazolo[4,3-c]pyridine-5-carbonyl]-1H-indole] | < 1 | > 10 |
| O=C(c1cc2c(Cl)c(F)ccc2[nH]1)N1CCc2n[nH]c(-c3cscn3)c2C1 [Example 13, 4-chloro-5-fluoro-2-[3-(1,3-thiazol-4-yl)-2H,4H,5H,6H,7H-pyrazolo[4,3-c]pyridine-5-carbonyl]-1H-indole] | < 1 | > 10 |
| O=C(c1cc2cc(F)c(F)cc2[nH]1)N1CCc2n[nH]c(-c3cscn3)c2C1 [Example 14, 5,6-difluoro-2-[3-(1,3-thiazol-4-yl)-2H,4H,5H,6H,7H-pyrazolo[4,3-c]pyridine-5-carbonyl]-1H-indole] | < 1 | > 10 |
| CCc1c(F)ccc2[nH]c(C(=O)N3CCc4n[nH]c(-c5cscn5)c4C3)cc12 [Example 25, 4-ethyl-5-fluoro-2-[3-(1,3-thiazol-4-yl)-2H,4H,5H,6H,7H-pyrazolo[4,3-c]pyridine-5-carbonyl]-1H-indole] | 1 to 25 | > 10 |
| CC1c2c(-c3cscn3)n[nH]c2CCN1C(=O)c1cc2c(Cl)cc(F)cc2[nH]1 (centres unmarked) [Example 35, 4-chloro-6-fluoro-2-[4-methyl-3-(1,3-thiazol-4-yl)-1H,4H,5H,6H,7H-pyrazolo[4,3-c]pyridine-5-carbonyl]-1H-indole] | < 1 | > 32 |
| O=C(NC1CCCCC1)c1n[nH]c2c1CN(C(=O)c1cc3ccccc3[nH]1)CC2 [Example 87, N-cyclohexyl-5-(1H-indole-2-carbonyl)-1H,4H,5H,6H,7H-pyrazolo[4,3-c]pyridine-3-carboxamide] | 1 to 25 | > 100 |
| C[C@@H]1CCC[C@@H](C)N1C(=O)c1n[nH]c2c1CN(C(=O)c1cc3ccccc3[nH]1)CC2 [Example 146, 2-{3-[(2R,6R)-2,6-dimethylpiperidine-1-carbonyl]-1H,4H,5H,6H,7H-pyrazolo[4,3-c]pyridine-5-carbonyl}-1H-indole] | 1 to 25 | > 10 |
| O=C(c1cc2ccccc2[nH]1)N1CCc2[nH]nc(C(=O)N3CCCC34CCC4)c2C1 [Example 151, 2-(3-{5-azaspiro[3.4]octane-5-carbonyl}-1H,4H,5H,6H,7H-pyrazolo[4,3-c]pyridine-5-carbonyl)-1H-indole] | 1 to 25 | > 10 |
| Cn1ncc2c1CN(C(=O)c1n[nH]c3c1CN(C(=O)c1cc4ccccc4[nH]1)CC3)C2 [Example 168, 2-(3-{1-methyl-1H,4H,5H,6H-pyrrolo[3,4-c]pyrazole-5-carbonyl}-1H,4H,5H,6H,7H-pyrazolo[4,3-c]pyridine-5-carbonyl)-1H-indole] | 1 to 25 | > 10 |
| O=C(c1cc2ccccc2[nH]1)N1CCc2[nH]nc(C(=O)N3CCC4(CCO4)C3)c2C1 (centres unmarked) [Example 182, 2-(3-{1-oxa-6-azaspiro[3.4]octane-6-carbonyl}-1H,4H,5H,6H,7H-pyrazolo[4,3-c]pyridine-5-carbonyl)-1H-indole] | 1 to 25 | > 10 |
| O=C(c1cc2ccccc2[nH]1)N1CCc2[nH]nc(C(=O)N3CCC4(COC4)C3)c2C1 [Example 183, 2-(3-{2-oxa-6-azaspiro[3.4]octane-6-carbonyl}-1H,4H,5H,6H,7H-pyrazolo[4,3-c]pyridine-5-carbonyl)-1H-indole] | 1 to 25 | > 10 |
| O=C(c1cc2ccccc2[nH]1)N1CCc2[nH]nc(C(=O)N3CCC(F)(F)C3)c2C1 [Example 186, 2-[3-(3,3-difluoropyrrolidine-1-carbonyl)-1H,4H,5H,6H,7H-pyrazolo[4,3-c]pyridine-5-carbonyl]-1H-indole] | < 1 | > 10 |
| O=C(c1cc2ccccc2[nH]1)N1CCc2[nH]nc(C(=O)N3CCCC(F)(F)C3)c2C1 [Example 187, 2-[3-(3,3-difluoropiperidine-1-carbonyl)-1H,4H,5H,6H,7H-pyrazolo[4,3-c]pyridine-5-carbonyl]-1H-indole] | < 1 | > 10 |
| CN(C(=O)c1n[nH]c2c1CN(C(=O)c1cc3ccccc3[nH]1)CC2)[C@@H]1CCCC[C@@H]1O [Example 200, N-[(1R,2S)-2-hydroxycyclohexyl]-5-(1H-indole-2-carbonyl)-N-methyl-1H,4H,5H,6H,7H-pyrazolo[4,3-c]pyridine-3-carboxamide] | 1 to 25 | > 10 |
| O=C(c1cc2ccccc2[nH]1)N1CCc2[nH]nc(S(=O)(=O)N3CC(F)(F)C3)c2C1 [Example 209, 2-{3-[(3,3-difluoroazetidin-1-yl)sulfonyl]-1H,4H,5H,6H,7H-pyrazolo[4,3-c]pyridine-5-carbonyl}-1H-indole] | < 1 | > 10 |
| O=C(c1cc2ccccc2[nH]1)N1CCc2[nH]nc(S(=O)(=O)N3CCCC3)c2C1 [Example 210, 2-[3-(pyrrolidine-1-sulfonyl)-1H,4H,5H,6H,7H-pyrazolo[4,3-c]pyridine-5-carbonyl]-1H-indole] | < 1 | > 10 |
| COCCN(C)S(=O)(=O)c1n[nH]c2c1CN(C(=O)c1cc3ccccc3[nH]1)CC2 [Example 212, 5-(1H-indole-2-carbonyl)-N-(2-methoxyethyl)-N-methyl-1H,4H,5H,6H,7H-pyrazolo[4,3-c]pyridine-3-sulfonamide] | 1 to 25 | > 10 |
| CCc1cc(F)cc2[nH]c(C(=O)N3CCc4[nH]nc(C(=O)N5CCCC56CC6)c4C3)cc12 [Example 214, 2-(3-{4-azaspiro[2.4]heptane-4-carbonyl}-1H,4H,5H,6H,7H-pyrazolo[4,3-c]pyridine-5-carbonyl)-4-ethyl-6-fluoro-1H-indole] | < 1 | > 10 |
| O=C(c1cc2c(Cl)cc(F)cc2[nH]1)N1CCc2[nH]nc(C(=O)N3CCCC34CC4)c2C1 [Example 215, 2-(3-{4-azaspiro[2.4]heptane-4-carbonyl}-1H,4H,5H,6H,7H-pyrazolo[4,3-c]pyridine-5-carbonyl)-4-chloro-6-fluoro-1H-indole] | < 1 | > 10 |
| O=C(c1cc2c(Cl)cccc2[nH]1)N1CCc2[nH]nc(C(=O)N3CCCC34CC4)c2C1 [Example 216, 2-(3-{4-azaspiro[2.4]heptane-4-carbonyl}-1H,4H,5H,6H,7H-pyrazolo[4,3-c]pyridine-5-carbonyl)-4-chloro-1H-indole] | < 1 | > 10 |
| O=C(c1cc2c(Cl)c(F)ccc2[nH]1)N1CCc2[nH]nc(C(=O)N3CCC(F)(F)C3)c2C1 [Example 217, 4-chloro-2-[3-(3,3-difluoropyrrolidine-1-carbonyl)-1H,4H,5H,6H,7H-pyrazolo[4,3-c]pyridine-5-carbonyl]-5-fluoro-1H-indole] | < 1 | > 10 |
| CN(C(=O)c1n[nH]c2c1CN(C(=O)c1cc3ccccc3[nH]1)CC2)C1(COC(=O)c2ccccc2)CC1 [Example 219, {1-[N-methyl 5-(1H-indole-2-carbonyl)-1H,4H,5H,6H,7H-pyrazolo[4,3-c]pyridine-3-amido]cyclopropyl}methyl benzoate] | < 1 | > 10 |
| O=C(NC1CC1)c1n[nH]c2c1CN(C(=O)c1cc3ccccc3[nH]1)CC2 [Example 220, N-cyclopropyl-5-(1H-indole-2-carbonyl)-1H,4H,5H,6H,7H-pyrazolo[4,3-c]pyridine-3-carboxamide] | 1 to 25 | > 10 |
| CN(C(=O)c1n[nH]c2c1CN(C(=O)c1cc3ccccc3[nH]1)CC2)C1(c2ccccc2)CC1 [Example 221, 5-(1H-indole-2-carbonyl)-N-methyl-N-(1-phenylcyclopropyl)-1H,4H,5H,6H,7H-pyrazolo[4,3-c]pyridine-3-carboxamide] | < 1 | > 10 |
| O=C(c1cc2ccccc2[nH]1)N1CCc2[nH]nc(C(=O)N3CC(F)(F)C3)c2C1 [Example 222, 2-[3-(3,3-difluoroazetidine-1-carbonyl)-1H,4H,5H,6H,7H-pyrazolo[4,3-c]pyridine-5-carbonyl]-1H-indole] | < 1 | > 10 |
